The results in this text go back to ChEMBL document CHEMBL4330066, “Carbohydrate-naphthalene diimide conjugates as potential antiparasitic drugs: Synthesis, evaluation and structure-activity studies” (Eur J Med Chem, 2019).

Broadly, the IC50 is the concentration at which inhibition is half-maximal.

One data set has as its system Trypanosoma brucei. The experiment in a line: Trypanocidal activity against Trypanosoma brucei Lister 427, antigenic type MiTat 1.2, clone 221a after 72 hrs by alamarBlue assay. The class given is functional, organism-based. The following applies: Lister 427, 72 h. On the technique in general: Resazurin is reduced to fluorescent resorufin, in cell work by metabolically active cells.

Data set [1] has as its system Leishmania major. The experiment in a line: Leishmaniacidal activity against Leishmania major MHOM/IL/80/Friedlin promastigotes after 72 hrs by MTT assay. The class given is functional, organism-based.
The subject of data set [2] is Leishmania major. The experiment in a line: Leishmaniacidal activity against Leishmania major MHOM/IL/80/Friedlin amastigotes infected in human THP1 cells after 72 hrs by luciferase luminescence assay. It counts as functional, organism-based. The following applies: THP-1, 72 h.
A further data set relates to MRC5. The experiment in a line: Cytotoxicity against human MRC5 cells assessed as reduction in cell viability after 48 hrs by MTT assay. The following applies: MRC5, 48 h. It counts as cell-based. A general note: Tetrazolium assays rely on reduction of a dye to a coloured formazan, in cell work by metabolically active cells.
Data set [3] can be described thus: Cytotoxicity against human THP1 cells. The class given is cell-based. The following applies: THP-1 cells, read-out: TC50 (the source's name).
The nature of data set [4]: Selectivity index, ratio of IC50 for human MRC5 cells to IC50 for Trypanosoma brucei Lister 427, antigenic type MiTat 1.2, clone 221a. It counts as toxicity. The following applies: MRC5 cells versus Trypanosoma brucei Lister 427, read-out: Ratio IC50.
Data set [5] in a line: Selectivity index, ratio of TC50 for human THP1 cells to IC50 for Leishmania major MHOM/IL/80/Friedlin amastigotes. The class given is toxicity. The following applies: THP1 cells versus Leishmania major amastigotes, read-out: Selectivity Index.

Consider `CN(C)CCCc1cc2c3c(c(NCCCn4cc(CO[C@H]5O[C@H](CO)[C@@H](O)[C@H](O)[C@@H]5O)nn4)cc4c3c1C(=O)N(CCCN(C)C)C4=O)C(=O)N(CCCN(C)C)C2=O`, for which the IC50 with Trypanosoma brucei is 440 nM; with Leishmania major [1], 180 nM; in the data set with Leishmania major [2], over 5000 nM; in the data set with MRC5 it was 6610 nM. In data set [3], the CC50 is over 10000 nM. Besides, in data set [4], the selectivity ratio turned out to be 15.
As to `CN(C)CCCN1C(=O)c2ccc3c4c(c(NCCCn5cc(CO[C@@H]6O[C@H](CO)[C@@H](O[C@H]7O[C@H](CO)[C@@H](O)[C@H](O)[C@H]7O)[C@H](O)[C@H]6O)nn5)cc(c24)C1=O)C(=O)N(CCCN(C)C)C3=O`, the IC50 with Trypanosoma brucei came to 270 nM; in the data set with Leishmania major [1] it was 6790 nM; with MRC5, 4340 nM. Also, the selectivity ratio in data set [4] amounted to 16.1.
In the case of `CN(C)CCCc1cc2c3c(c(NCCCn4cc(COCCOCCOCCO[C@@H]5O[C@H](CO)[C@@H](O)[C@H](O)[C@H]5O)nn4)cc4c3c1C(=O)N(CCCN(C)C)C4=O)C(=O)N(CCCN(C)C)C2=O`, the IC50 in the data set on Trypanosoma brucei was 350 nM; in the data set on Leishmania major [1], 270 nM; with Leishmania major [2], 3590 nM; in the data set on MRC5, 8850 nM. Besides, the CC50 in data set [3] was over 10000 nM. Further, the selectivity ratio in data set [5] is over 2.8; in data set [4] it was 25.3.
With `CN(C)CCCN1C(=O)c2ccc3c4c(c(NCCCn5cc(CO[C@@H]6O[C@H](CO)[C@@H](O[C@@H]7O[C@H](CO)[C@H](O)[C@H](O)[C@H]7O)[C@H](O)[C@H]6O)nn5)cc(c24)C1=O)C(=O)N(CCCN(C)C)C3=O`, the IC50 in the data set with Trypanosoma brucei came out at 370 nM; in the data set on Leishmania major [1], 1030 nM; with Leishmania major [2] it was 4720 nM; in the data set on MRC5 it was 1240 nM. For the same compound, the CC50 in data set [3] stood at 9290 nM. The selectivity ratio was found to be 2 in data set [5] and 3.4 in data set [4].
With `CN(C)CCCc1cc2c3c(c(NCCCn4cc(COCCOCCOCCO[C@@H]5O[C@H](CO)[C@@H](O[C@@H]6O[C@H](CO)[C@H](O)[C@H](O)[C@H]6O)[C@H](O)[C@H]5O)nn4)cc4c3c1C(=O)N(CCCN(C)C)C4=O)C(=O)N(CCCN(C)C)C2=O`, the values for the half-inhibitory concentration (IC50) with Trypanosoma brucei, with Leishmania major [1] and in the data set with MRC5 were 830 nM, 8980 nM and 7040 nM, respectively. Also, the selectivity ratio in data set [4] is 8.5.
For `CN(C)CCCN1C(=O)c2ccc3c4c(c(NCCCn5cc(CCO[C@@H]6O[C@H](CO)[C@@H](O[C@H]7O[C@H](CO)[C@@H](O)[C@H](O)[C@H]7O)[C@H](O)[C@H]6O)nn5)cc(c24)C1=O)C(=O)N(CCCN(C)C)C3=O`, the IC50 in the data set with Trypanosoma brucei was 130 nM; in the data set with Leishmania major [1], 4680 nM; in the data set with Leishmania major [2], 430 nM; in the data set with MRC5 it was 220 nM. For the same compound, in data set [3], the CC50 was found to be 1520 nM. Also, the selectivity ratio amounted to 3.5 in data set [5] and 1.7 in data set [4].
In the case of `CN(C)CCCc1cc2c3c(c(NCCCn4cc(CO[C@@H]5O[C@H](CO)[C@@H](O[C@H]6O[C@H](CO)[C@@H](O)[C@H](O)[C@H]6O)[C@H](O)[C@H]5O)nn4)cc4c3c1C(=O)N(CCCN(C)C)C4=O)C(=O)N(CCCN(C)C)C2=O`, the half-inhibitory concentration (IC50) in the data set on Trypanosoma brucei turned out to be 310 nM; with Leishmania major [1], 11400 nM; with MRC5 it was 9560 nM. The selectivity ratio in data set [4] was 30.8.
The matching figures for `CN(C)CCCN1C(=O)c2ccc3c4c(c(NCCCn5cc(CCO[C@H]6O[C@H](CO)[C@@H](O)[C@H](O)[C@@H]6O)nn5)cc(c24)C1=O)C(=O)N(CCCN(C)C)C3=O`: 180 nM, 2790 nM, 170 nM and 0.9.
For `CN(C)CCCc1cc2c3c(c(NCCCn4cc(CO[C@@H]5O[C@H](CO)[C@@H](O[C@@H]6O[C@H](CO)[C@H](O)[C@H](O)[C@H]6O)[C@H](O)[C@H]5O)nn4)cc4c3c1C(=O)N(CCCN(C)C)C4=O)C(=O)N(CCCN(C)C)C2=O`, the IC50 with Trypanosoma brucei is 370 nM; with Leishmania major [1], 20000 nM; in the data set with MRC5, 6610 nM. In addition, the selectivity ratio in data set [4] is 17.9.
As for `CN(C)CCCN1C(=O)c2ccc3c4c(c(NCc5cn([C@@H]6O[C@H](CO)[C@@H](O)[C@H](O)[C@H]6O)nn5)cc(c24)C1=O)C(=O)N(CCCN(C)C)C3=O`, the concentration for half-maximal inhibition (IC50) in the data set with Trypanosoma brucei came out at 24 nM; in the data set with Leishmania major [2], 3910 nM. Also, in data set [3], the CC50 was found to be 8100 nM. Besides, the selectivity ratio in data set [5] was determined as 2.1.
With `CCCNc1cc2c3c(c(CCCN(C)C)cc4c3c1C(=O)N(CCCN(C)C)C4=O)C(=O)N(CCCN(C)C)C2=O`, the IC50 is 3 nM with Trypanosoma brucei, 740 nM in the data set on Leishmania major [1], 3800 nM with Leishmania major [2] and 80 nM with MRC5. In addition, the selectivity ratio in data set [4] is 26.7.
Turning to `CN(C)CCCc1cc2c3c(c(NCCCn4cc(CCO[C@H]5O[C@H](CO)[C@@H](O)[C@H](O)[C@@H]5O)nn4)cc4c3c1C(=O)N(CCCN(C)C)C4=O)C(=O)N(CCCN(C)C)C2=O`, the IC50 is 310 nM in the data set on Trypanosoma brucei, 1970 nM in the data set on Leishmania major [1], over 5000 nM in the data set with Leishmania major [2] and 5150 nM in the data set on MRC5. Further, in data set [3], the CC50 was over 10000 nM. For the same compound, in data set [4], the selectivity ratio is 16.6.
In the case of `CN(C)CCCc1cc2c3c(c(NCCCn4cc(COCCOCCOCCO[C@H]5O[C@H](CO)[C@@H](O)[C@H](O)[C@@H]5O)nn4)cc4c3c1C(=O)N(CCCN(C)C)C4=O)C(=O)N(CCCN(C)C)C2=O`, the IC50 is 190 nM in the data set on Trypanosoma brucei, 4750 nM with Leishmania major [1] and 6470 nM with MRC5. In addition, the selectivity ratio in data set [4] came to 34.
For `CN(C)CCCc1cc2c3c(c(NCCCn4cc(CO[C@@H]5O[C@H](CO)[C@@H](O)[C@H](O)[C@H]5O)nn4)cc4c3c1C(=O)N(CCCN(C)C)C4=O)C(=O)N(CCCN(C)C)C2=O`, the IC50 came to 150 nM with Trypanosoma brucei, 490 nM with Leishmania major [1], 2630 nM in the data set with Leishmania major [2] and 850 nM with MRC5. The CC50 in data set [3] is over 10000 nM. For the same compound, the selectivity ratio in data set [5] is over 3.8; in data set [4], 5.7.
Regarding `CN(C)CCCN1C(=O)c2ccc3c4c(c(NCCCn5cc(COCCOCCOCCO[C@@H]6O[C@H](CO)[C@@H](O[C@H]7O[C@H](CO)[C@@H](O)[C@H](O)[C@H]7O)[C@H](O)[C@H]6O)nn5)cc(c24)C1=O)C(=O)N(CCCN(C)C)C3=O`, the IC50 was determined as 40 nM in the data set on Trypanosoma brucei, 160 nM in the data set on Leishmania major [1], 4520 nM with Leishmania major [2] and 3300 nM in the data set on MRC5. Besides, the CC50 in data set [3] is over 10000 nM. Further, the selectivity ratio is over 2.2 in data set [5] and 82.5 in data set [4].
Turning to `CN(C)CCCN1C(=O)c2ccc3c4c(c(NCCCn5cc(COCCOCCOCCO[C@H]6O[C@H](CO)[C@@H](O)[C@H](O)[C@@H]6O)nn5)cc(c24)C1=O)C(=O)N(CCCN(C)C)C3=O`, the IC50 came out at 130 nM in the data set on Trypanosoma brucei, 6120 nM in the data set on Leishmania major [1] and 1360 nM in the data set with MRC5. Also, in data set [4], the selectivity ratio worked out at 10.5.
Take `CN(C)CCCN1C(=O)c2ccc3c4c(c(NCCCn5cc(CO[C@H]6O[C@H](CO)[C@@H](O)[C@H](O)[C@@H]6O)nn5)cc(c24)C1=O)C(=O)N(CCCN(C)C)C3=O`: the IC50 is 210 nM in the data set on Trypanosoma brucei, 2410 nM in the data set with Leishmania major [1], 470 nM in the data set on Leishmania major [2] and 230 nM in the data set on MRC5. The CC50 in data set [3] is 1780 nM. The results for the selectivity ratio in data set [5] and in data set [4] were 3.8 and 1.1, respectively.
With `CCCNc1cc2c3c(ccc4c3c1C(=O)N(CCCN(C)C)C4=O)C(=O)N(CCCN(C)C)C2=O`, the IC50 with Trypanosoma brucei turned out to be 9 nM; with Leishmania major [2] it was 610 nM. In addition, the CC50 in data set [3] is 3650 nM. The figures for the selectivity ratio in data set [5] and in data set [4] were 6 and 40, respectively.
In the case of `CN(C)CCCN1C(=O)c2ccc3c4c(c(NCCCn5cc(CO[C@@H]6O[C@H](CO)[C@@H](O)[C@H](O)[C@H]6O)nn5)cc(c24)C1=O)C(=O)N(CCCN(C)C)C3=O`, the half-maximal inhibitory concentration (IC50) in the data set on Trypanosoma brucei was 220 nM; in the data set with Leishmania major [1], 430 nM; with Leishmania major [2], 660 nM; in the data set with MRC5, 260 nM. Besides, the CC50 in data set [3] amounted to 1440 nM. The selectivity ratio in data set [5] was 2.2; in data set [4], 1.2.
On to `CN(C)CCCc1cc2c3c(c(NCCCn4cc(CCO[C@@H]5O[C@H](CO)[C@@H](O[C@H]6O[C@H](CO)[C@@H](O)[C@H](O)[C@H]6O)[C@H](O)[C@H]5O)nn4)cc4c3c1C(=O)N(CCCN(C)C)C4=O)C(=O)N(CCCN(C)C)C2=O`, for which the IC50 came out at 340 nM in the data set with Trypanosoma brucei, 2890 nM with Leishmania major [1] and 11100 nM with MRC5. Further, in data set [4], the selectivity ratio was 32.7.
The matching figures for `CN(C)CCCc1cc2c3c(c(NCCCn4cc(COCCOCCOCCO[C@@H]5O[C@H](CO)[C@@H](O[C@H]6O[C@H](CO)[C@@H](O)[C@H](O)[C@H]6O)[C@H](O)[C@H]5O)nn4)cc4c3c1C(=O)N(CCCN(C)C)C4=O)C(=O)N(CCCN(C)C)C2=O`: 390 nM, 10700 nM, over 20000 nM and over 51.
With `CN(C)CCCN1C(=O)c2ccc3c4c(c(NCc5cn(CCO[C@@H]6O[C@H](CO)[C@@H](O)[C@H](O)[C@H]6O)nn5)cc(c24)C1=O)C(=O)N(CCCN(C)C)C3=O`, the results for the IC50 with Trypanosoma brucei and with Leishmania major [2] were 17 nM and 4420 nM, respectively. In addition, the CC50 in data set [3] stood at 8650 nM. Besides, in data set [5], the selectivity ratio worked out at 2.
In the case of `CN(C)CCCc1cc2c3c(c(NCCCn4cc(CCO[C@@H]5O[C@H](CO)[C@@H](O[C@@H]6O[C@H](CO)[C@H](O)[C@H](O)[C@H]6O)[C@H](O)[C@H]5O)nn4)cc4c3c1C(=O)N(CCCN(C)C)C4=O)C(=O)N(CCCN(C)C)C2=O`, the IC50 is 530 nM in the data set on Trypanosoma brucei, 280 nM in the data set on Leishmania major [1], over 5000 nM in the data set on Leishmania major [2] and 7160 nM with MRC5. Moreover, in data set [3], the CC50 was over 10000 nM. In addition, in data set [4], the selectivity ratio was determined as 13.5.
